In ChEMBL document CHEMBL1629628, “Methicillin-resistant and -susceptible Staphylococcus aureus strains of clonal lineages ST398 and ST9 from swine carry the multidrug resistance gene cfr” (2009):
Converted amounts (≈) assume the structure as drawn.

Legend:
Assay type in all cases: functional
[1] = system: Staphylococcus aureus; experiment: Antimicrobial activity against Staphylococcus aureus RN4220 transformed with Staphylococcus aureus ST398 plasmid pSCFS3 carrying cfr and fexA genes
[2] = system: Staphylococcus aureus; experiment: Antimicrobial activity against Staphylococcus aureus RN4220
[3] = system: Staphylococcus aureus; experiment: Antimicrobial activity against methicillin-susceptible Staphylococcus aureus ST9 expressing cfr, fexA and erm(C) genes
[4] = system: Staphylococcus aureus; experiment: Antimicrobial activity against Staphylococcus aureus RN4220 transformed with Staphylococcus aureus ST9 plasmid pSCFS3 carrying cfr and fexA genes
[5] = system: Staphylococcus aureus; experiment: Antimicrobial activity against methicillin-resistant Staphylococcus aureus ST398 expressing cfr, fexA, erm(A), tet(M) and mecA genes

SMILES | MIC [1] [µg/mL] | MIC [2] [µg/mL] | MIC [3] [µg/mL] | MIC [4] [µg/mL] | MIC [5] [µg/mL]
CCC[C@@H]1C[C@@H](C(=O)N[C@@H]([C@H]2O[C@H](SC)[C@H](O)[C@@H](O)[C@H]2O)[C@H](C)Cl)N(C)C1 [CLINDAMYCIN] | ≥ 64 | 0.125 (≈ 0.294 µM) | ≥ 64 | ≥ 64 | ≥ 64
C=C[C@]1(C)C[C@@H](OC(=O)CSCCN(CC)CC)[C@]2(C)[C@H](C)CC[C@]3(CCC(=O)[C@H]32)[C@@H](C)[C@@H]1O [TIAMULIN] | ≥ 128 | 0.063 (≈ 0.128 µM) | ≥ 128 | ≥ 128 | ≥ 128
CC[C@H]1OC(=O)[C@H](C)[C@@H](O[C@H]2C[C@@](C)(OC)[C@@H](O)[C@H](C)O2)[C@H](C)[C@@H](O[C@@H]2O[C@H](C)C[C@H](N(C)C)[C@H]2O)[C@](C)(O)C[C@@H](C)C(=O)[C@H](C)[C@@H](O)[C@]1(C)O [ERYTHROMYCIN] | 0.25 (≈ 0.341 µM) | 0.25 (≈ 0.341 µM) | ≥ 64 | 0.25 (≈ 0.341 µM) | ≥ 64
O=C(N[C@H](CO)[C@H](O)c1ccc([N+](=O)[O-])cc1)C(Cl)Cl [CHLORAMPHENICOL] | ≥ 128 | 4 (≈ 12.4 µM) | ≥ 128 | ≥ 128 | ≥ 128
CS(=O)(=O)c1ccc([C@@H](O)[C@@H](CF)NC(=O)C(Cl)Cl)cc1 [FLORFENICOL] | 128 (≈ 357 µM) | 2 (≈ 5.58 µM) | ≥ 128 | 128 (≈ 357 µM) | ≥ 128
CC1=C\[C@@H](O)CC(=O)Cc2nc(co2)C(=O)N2CCC=C2C(=O)O[C@H](C(C)C)[C@H](C)/C=C/C(=O)NC\C=C\1 [VIRGINIAMYCIN FACTOR M1] | 128 (≈ 244 µM) | 4 (≈ 7.61 µM) | 128 (≈ 244 µM) | 128 (≈ 244 µM) | 128 (≈ 244 µM)
CC(=O)NC[C@H]1CN(c2ccc(N3CCOCC3)c(F)c2)C(=O)O1 [LINEZOLID] | – | 0.5 (≈ 1.48 µM) | 8 (≈ 23.7 µM) | – | –
CN(C)[C@@H]1C(O)=C(C(N)=O)C(=O)[C@@]2(O)C(O)=C3C(=O)c4c(O)cccc4[C@@](C)(O)[C@H]3C[C@@H]12 [TETRACYCLINE] | 0.25 (≈ 0.563 µM) | 0.25 (≈ 0.563 µM) | 0.12 (≈ 0.27 µM) | 0.25 (≈ 0.563 µM) | 64 (≈ 144 µM)
Cc1onc(-c2ccccc2)c1C(=O)N[C@@H]1C(=O)N2[C@@H]1SC(C)(C)[C@@H]2C(=O)O [OXACILLIN] | 0.06 (≈ 0.149 µM) | 0.06 (≈ 0.149 µM) | 0.06 (≈ 0.149 µM) | 0.06 (≈ 0.149 µM) | ≥ 32
